{"source": "patent US8871681B2", "about": "“Herbicidal compositions comprising 4-amino-3-chloro-5-fluoro-6-(4-chloro-2-fluoro-3-methoxyphenyl) pyridine-2-carboxylic acid or a derivative thereof and certain sulfonylureas” (Dow AgroSciences LLC, priority 2012, dated 2014)", "test_system": "BRAPP (Brachiaria platyphylla, broadleaf signalgrass)", "test": "Postemergence foliar-applied weed control, direct seeded rice, greenhouse (Example I)", "type": "in vivo, Brachiaria platyphylla (Griseb.) Nash", "conditions": "Urochloa platyphylla, post-emergence", "how_it_was_run": "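Greenhouse-grown plants in loam/sandy loam–grit soil (14 h photoperiod, ~29/26 °C) were sprayed postemergence at the first to fourth true leaf stage. Compound A (acid equivalent basis) and ALS-inhibiting sulfonylureas (active ingredient basis) were applied alone and in combination in 1.25% (v/v) crop oil concentrate at 187 L/ha by track sprayer; controls received solvent blank.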", "note": "Like-named read-outs stand apart in the source and are kept apart here."}
{"compound": "COC(=O)c1ccccc1CS(=O)(=O)NC(=O)Nc1nc(OC)cc(OC)n1", "note": "[Bensulfuron-methyl, methyl 2-[[[[[(4,6-dimethoxy-2-pyrimidinyl)amino]carbonyl]amino]sulfonyl]methyl]benzoate, reference compound]", "values": [{"measurement": "pest or weed control at 4.38 g/ha", "setting": "504 h, 21 DAA, 4.38 gai/ha, read-out: Visual Weed Control (%) Obs", "value": 0, "unit": "%"}, {"measurement": "pest or weed control at 8.75 g/ha", "setting": "504 h, 21 DAA, 8.75 gai/ha, read-out: Visual Weed Control (%) Obs", "value": 0, "unit": "%"}, {"measurement": "pest or weed control at 17.5 g/ha", "setting": "504 h, 21 DAA, 17.5 gai/ha, read-out: Visual Weed Control (%) Obs", "value": 0, "unit": "%"}, {"measurement": "pest or weed control at 17.5 g/ha", "setting": "504 h, 21 DAA, 17.5 gai/ha, second series, read-out: Visual Weed Control (%) Obs", "value": 0, "unit": "%"}, {"measurement": "pest or weed control at 35 g/ha", "setting": "504 h, 21 DAA, 35 gai/ha, second series, read-out: Visual Weed Control (%) Obs", "value": 0, "unit": "%"}]}
{"compound": "COC(=O)c1ccccc1S(=O)(=O)NC(=O)Nc1nc(C)nc(OC)n1", "note": "[Metsulfuron-methyl, methyl 2-[[[[(4-methoxy-6-methyl-1,3,5-triazin-2-yl)amino]carbonyl]amino]sulfonyl]benzoate, reference compound]", "values": [{"measurement": "pest or weed control at 7.5 g/ha", "setting": "480 h, 20 DAA, 7.5 gai/ha, read-out: Visual Weed Control (%) Obs", "value": 0, "unit": "%"}, {"measurement": "pest or weed control at 15 g/ha", "setting": "480 h, 20 DAA, 15 gai/ha, read-out: Visual Weed Control (%) Obs", "value": 20, "unit": "%"}]}
{"compound": "COc1c(Cl)ccc(-c2nc(C(=O)OCc3ccccc3)c(Cl)c(N)c2F)c1F", "note": "[Compound A Benzyl Ester]", "values": [{"measurement": "pest or weed control at 4.38 g/ha", "setting": "480 h, read-out: Visual Weed Control (%) Obs, 20 DAA, 4.38 gae/ha", "value": 60, "unit": "%"}, {"measurement": "pest or weed control at 8.75 g/ha", "setting": "480 h, read-out: Visual Weed Control (%) Obs, 20 DAA, 8.75 gae/ha", "value": 75, "unit": "%"}, {"measurement": "pest or weed control at 17.5 g/ha", "setting": "480 h, read-out: Visual Weed Control (%) Obs, 20 DAA, 17.5 gae/ha", "value": 85, "unit": "%"}, {"measurement": "pest or weed control at 4.38 g/ha", "setting": "504 h, read-out: Visual Weed Control (%) Obs, 21 DAA, 4.38 gae/ha", "value": 50, "unit": "%"}, {"measurement": "pest or weed control at 4.38 g/ha", "setting": "504 h, read-out: Visual Weed Control (%) Obs, 21 DAA, 4.38 gae/ha, second series", "value": 50, "unit": "%"}, {"measurement": "pest or weed control at 8.75 g/ha", "setting": "504 h, read-out: Visual Weed Control (%) Obs, 21 DAA, 8.75 gae/ha", "value": 70, "unit": "%"}, {"measurement": "pest or weed control at 8.75 g/ha", "setting": "504 h, read-out: Visual Weed Control (%) Obs, 21 DAA, 8.75 gae/ha, second series", "value": 80, "unit": "%"}, {"measurement": "pest or weed control at 17.5 g/ha", "setting": "504 h, read-out: Visual Weed Control (%) Obs, 21 DAA, 17.5 gae/ha", "value": 80, "unit": "%"}, {"measurement": "pest or weed control at 8 g/ha", "setting": "528 h, read-out: Visual Weed Control (%) Obs, 22 DAA, 8 gae/ha", "value": 50, "unit": "%"}, {"measurement": "pest or weed control at 16 g/ha", "setting": "528 h, read-out: Visual Weed Control (%) Obs, 22 DAA, 16 gae/ha", "value": 90, "unit": "%"}, {"measurement": "pest or weed control at 32 g/ha", "setting": "528 h, read-out: Visual Weed Control (%) Obs, 22 DAA, 32 gae/ha", "value": 85, "unit": "%"}]}
{"compound": "COc1c(Cl)ccc(-c2nc(C(=O)O)c(Cl)c(N)c2F)c1F", "note": "[Compound A Acid, 4-amino-3-chloro-5-fluoro-6-(4-chloro-2-fluoro-3-methoxy-phenyl)pyridine-2-carboxylic acid]", "values": [{"measurement": "pest or weed control at 4.38 g/ha", "setting": "480 h, 20 DAA, 4.38 gae/ha, read-out: Visual Weed Control (%) Obs", "value": 10, "unit": "%"}, {"measurement": "pest or weed control at 4.38 g/ha", "setting": "504 h, 21 DAA, 4.38 gae/ha, read-out: Visual Weed Control (%) Obs", "value": 40, "unit": "%"}, {"measurement": "pest or weed control at 4.38 g/ha", "setting": "504 h, 21 DAA, 4.38 gae/ha, second series, read-out: Visual Weed Control (%) Obs", "value": 50, "unit": "%"}]}
{"compound": "COCC(=O)OC(c1ncccc1S(=O)(=O)NC(=O)Nc1nc(OC)cc(OC)n1)C(C)F", "note": "(stereo not shown) [Flucetosulfuron, 1-[3-[[[[(4,6-dimethoxy-2-pyrimidinyl)amino]carbonyl]amino]sulfonyl]-2-pyridinyl]-2-fluoropropyl 2-methoxyacetate]", "values": [{"measurement": "pest or weed control at 0.05 g/ha", "setting": "504 h, 21 DAA, 0.05 gai/ha, read-out: Visual Weed Control (%) Obs", "value": 0, "unit": "%"}, {"measurement": "pest or weed control at 0.1 g/ha", "setting": "504 h, 21 DAA, 0.1 gai/ha, read-out: Visual Weed Control (%) Obs", "value": 0, "unit": "%"}, {"measurement": "pest or weed control at 0.2 g/ha", "setting": "504 h, 21 DAA, 0.2 gai/ha, read-out: Visual Weed Control (%) Obs", "value": 0, "unit": "%"}, {"measurement": "pest or weed control at 1.7 g/ha", "setting": "528 h, 22 DAA, 1.7 gai/ha, read-out: Visual Weed Control (%) Obs", "value": 0, "unit": "%"}]}
